Test results from patent publication US20130150350A1, “Derivatives of 1-Phenyl-1,5-Dihydro-Benzo[B] [1,4]Diazepine-2,4-Dione as Inhibitors of HIV Replication” (BOEHRINGER INGELHEIM INTERNATIONAL GMBH, priority 2010, published 2013).

Assays:
[1] = molecular target: T1, HIV-1NL4-3 CA-NC protein (SEQ ID NO: 2) (Human immunodeficiency virus type 1 group M subtype B, UniProt P12493, G226D); assay: Immobilized capsid assembly assay (CAA); type: biochemical; settings: concentration for 50% inhibition of capsid assembly; 2 μM CA-NC, 2 hours at room temperature; read-out: IC50 (μM) CAA
T1 construct: HIV-1NL4-3 CA-NC, Gag residues 133-432; initiator Met (start codon introduced by PCR primer) (N); made in house; host or cells: E. coli BL21(DE3), pET-11a
Text: (§1) SEQ ID NO: 1 is a nucleic acid of 900 base pairs encoding HIV-1NL4-3 CA-NC, Gag residues 133-432, having the CA G94D mutation (SEQ ID NO: 2). SEQ ID NO: 1, is transferred to pET-11a expression vector (Novagen™) by PCR amplification using primers that introduce an NdeI site and a start codon at the 5′-end and a BamHI site and a stop codon at the 3′-end. Resistance mutations in CA were identified by passage of the HIV-1 virus in the presence of compounds of the invention, namely V27A/I, K30R, S33G, V36T, T58I, G61E, G208A/R, E213G, K30R/T58I, K30R/G208R, V36T/G208R, S33G/T58I, S33G/G208R and T58I/G208R, all numbered with reference to SEQ ID NO: 2,. These resistance mutations may be introduced in the expression vector using the QuikChange® II Site-Directed Mutagenesis Kit (Stratagene) according to the manufacturer's instructions. SEQ ID NOS: 2 is expressed in the BL21(DE3) E. coli cells (Novagen™). Briefly, LB media is inoculated with overnight pre-cultures and grown at 37° C. until mid log-phase (Abs600 ˜0.6), protein expression is induced by addition of 0.5-1 mM isopropyl-β,D-thiogalactopyranoside (IPTG) and carried out for 4 to 6 hours at 30° C. Cells are harvested by centrifugation and pellets are stored at −80° C. until purification.
(§2) Purification of CA-NC (SEQ ID NO: 2) is as follows: 5 to 10 g of cell paste are lysed by sonication in 40 ml of Buffer A [20 mM Tris pH 7.5; 1 μM ZnCl2; 10 mM β-mercaptoethanol] supplemented with 0.5M NaCl and Complete EDTA-free® protease inhibitors tablets (Roche). Nucleic acids and cell debris are removed by adding 0.11 volumes of 0.2 M ammonium sulfate and an equivalent volume of 10% poly-(ethyleneimine) pH 8.0, stirring the sample for 20 minutes at 4° C., followed by centrifugation at 30 000×g for 20 minutes. SEQ ID NO: 2 is recovered from the supernatant by adding 0.35 volumes of saturated ammonium sulfate solution followed by centrifugation at 10 000×g for 15 minutes. The pellet is dissolved in 10 ml of Buffer A+0.1 M NaCl and dialyzed overnight in the same buffer but at 0.05 M NaCl (Dialysis Buffer). The sample is then cleared by centrifugation and passed on a 1-ml HiTrapTMSP HP column (GE Healthcare) pre-equilibrated with Dialysis Buffer. SEQ ID NO: 2 is eluted with Buffer A+0.5 M NaCl, fractions containing the protein are pooled; concentration determination is done by Abs280 using the calculated molar extinction coefficient (E=40220 M-1 cm-1).
Reacti-Bind Neutravidin Coated black 384-well plates (Pierce Cat#15402) are washed with 80 μl/well of Buffer A (50 mM Tris pH 8.0; 350 mM NaCl; 10 μM ZnSO4; 0.0025% CHAPS (w/v); 50 μg/ml bovine serum albumin (BSA); 1 mM DTT). Immobilization of a 5′-end biotin labeled (TG)25 oligonucleotide (Integrated DNA Technology Inc.) is carried out by adding 50 μl/well of a 25 nM solution of oligonucleotide in Buffer A+5 mg/ml of BSA (Sigma™) and incubating overnight. Unbound material is removed by two 80 μl/well washes with Buffer A. Assembly reactions are performed in 60 μl/well reactions comprising test compound, 100 nM of 5′-end fluorescein labeled (TG)25 oligonucleotide (Integrated DNA Technology Inc.) and 2 μM of CA-NC protein (SEQ ID NO: 2), using Buffer A+1% DMSO. Assembly reactions are incubated for 2 hours at room temperature and non-immobilized material is removed by two successive 80 μl/well washes with Buffer A. Finally, 80 μl/well of Buffer A+0.1% sodium dodecyl sulfate (SDS) is added and incubated for 15 minutes prior to quantification of captured fluorescence on a Victor2 plate reader (PerkinElmer Life Sciences) equipped with fluorescein excitation and emission filters using the standard manufacturer's settings for fluorescein fluorescence. The amount of captured fluorescence is considered to be proportional to the level of assembly. The IC50 values for each compound are generated by fitting inhibition curves from ten-point dilution series to the following equation: […]

[2] = molecular target: T2, assembled HIV-1 capsid complexes (CA-NC protein, SEQ ID NO: 2) (Human immunodeficiency virus type 1 group M subtype B, UniProt P12493, G226D); assay: Capsid disassembly assay (CDA); type: biochemical; settings: concentration for 50% disassembly of assembled complexes; 2 hours at room temperature; read-out: IC50 (μM) CDA
T2 construct: HIV-1NL4-3 CA-NC, Gag residues 133-432; initiator Met (start codon introduced by PCR primer) (N); made in house; host or cells: E. coli BL21(DE3), pET-11a
Text: The GAG polyprotein is the major structural protein required for HIV viral particle assembly. During the maturation process, Gag is cleaved by the viral protease and releases its four major proteins, matrix (MA), capsid (CA), nucleocapside (NC) and p6, as well as two spacer peptides termed SP1 and SP2. This triggers profound morphological changes to the viral particle as CA will reassemble to form the viral core, a structure that is essential for viral infectivity.
as §1, §2
Reacti-Bind Neutravidin Coated black 384-well plates (Pierce Cat#15402) are washed with 80 μl/well of Buffer A (50 mM Tris pH 8.0; 350 mM NaCl; 10 μM ZnSO4; 0.0025% CHAPS (w/v); 50 μg/ml BSA; 1 mM DTT). Immobilization of a 5′-end biotin labeled (TG)25 oligonucleotide (Integrated DNA Technology Inc.) is carried out by adding 50 μl/well of a 25 nM solution of oligonucleotide in Buffer A+5 mg/ml BSA and incubating overnight. Unbound material is removed by two 80 μl/well washes with Buffer A. Assembly reactions are performed in 60 μl/well reactions comprising 100 nM of 5′-end fluorescein labeled (TG)25 oligonucleotide (Integrated DNA Technology Inc.) and 2 μM of CA-NC protein (SEQ ID NO: 2), using Buffer A. Assembly reactions are incubated for 2 hours at room temperature and non-immobilized material is removed by washing 80 μl/well with Buffer A. Test compounds, serially diluted in Buffer A+0.125% dimethyl sulfoxide (DMSO), are added to the wells (60 μl/well) and incubated at room temperature for 2 hours. […]

[3] = test system: HIV-1 replication in C8166 LTRluc cells; assay: C8166 HIV-1 luciferase assay; type: cell-based; settings: Human immunodeficiency virus 1, 72 h, inhibition of HIV-1 replication, moi 0.005, 3 days
Procedure: The assay used to measure inhibition of HIV replication is as described in WO 2004/050643, pages 73-75, herein incorporated by reference, with the following modifications:
Serial dilutions of HIV-1 inhibitors are prepared in complete media from DMSO stock solutions. Eleven serial dilutions of desired concentration are prepared in a 1 mL deep well titer plate (96 wells). The 12th well contains complete media with no inhibitor and serves as the positive control. All samples contain the same concentration of DMSO 0.1% DMSO). Inhibitor is added, to triplicate wells, of a 96 well tissue culture treated clear view black microtiter plate (Corning Costar catalogue #3904). The total volume per well is 200 μL of media containing the cells and inhibitor. The last row is reserved for uninfected C8166 LTRluc cells to serve as the background blank control and the first row is media alone.
Count C8166 LTRluc cells and place in a minimal volume of complete RPMI 1640 in a tissue culture flask (ex. 30×10^6 cells in 10 mL media/25 cm^2 flask). Infect cells with HIV-1 at a moi of 0.005. Incubate cells for 1.5 hours at 37° C. on a rotating rack in a 5% CO2 incubator. Resuspend cells in complete RPMI to give a final concentration of 25,000-cells/well. Add cells to wells of 96 well microtiter plate containing inhibitors. Add 25,000 uninfected C8166—LTRluc cells/well in 200 μL complete RPMI to last row for background control. Incubate cells at 37° C. in 5% CO2 incubator for 3 days.

CCN1C(=O)N(c2ccc(O)c(-c3cccnc3)c2)C(=O)N(c2ccccc2)c2cc(C(F)(F)F)ccc21 [Compound 3014]
IC50 [1]: 0.31 µM
IC50 [2]: 0.14 µM
EC50 [3]: 200 nM
